Experimental data: ChEMBL document CHEMBL1201862, “PubChem BioAssay data set” (2004)
“And” between values parts separate entries of the source, which are not always exact repeats. Equal values may be shown once.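 Results reflect a 48-hour exposure of cells in 96-well plates to compound at five concentrations. At the GI50, growth is halved.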 The source made the active and inactive calls. Cut-off read from the data, not from the text of the source: active = GI50 up to about 1.1 µM and inactive = higher.

Assays:
Assay in all cases: growth of human tumour cells (NCI), 48 h
LXFL 529 = tested on: LXFL 529
M14 = tested on: M14
HOP-92 = tested on: HOP-92
U-251 = tested on: U-251
HCT-116 = tested on: HCT-116
M19-MEL = tested on: M19-MEL
SW-620 = tested on: SW-620
SF-295 = tested on: SF-295
RXF 631 = tested on: RXF 631
786-0 = tested on: 786-0
MOLT-4 = tested on: MOLT-4
HT-29 = tested on: HT-29
Malme-3M = tested on: Malme-3M
LOX IMVI = tested on: LOX IMVI
HOP-18 = tested on: HOP-18
K562 = tested on: K562
TK-10 = tested on: TK-10
HCT-15 = tested on: HCT-15
DMS-114 = tested on: DMS-114
RPMI-8226 = tested on: RPMI-8226
SNB-78 = tested on: SNB-78
SK-MEL-2 = tested on: SK-MEL-2
CCRF-CEM = tested on: CCRF-CEM
ACHN = tested on: ACHN
IGROV-1 = tested on: IGROV-1
NCI-H522 = tested on: NCI-H522
COLO 205 = tested on: COLO 205
SN12C = tested on: SN12C
DLD-1 = tested on: DLD-1
A549 = tested on: A549
HCC 2998 = tested on: HCC 2998
SK-MEL-28 = tested on: SK-MEL-28
SK-MEL-5 = tested on: SK-MEL-5
NCI-H23 = tested on: NCI-H23
UACC-257 = tested on: UACC-257
EKVX = tested on: EKVX
UACC-62 = tested on: UACC-62
HOP-62 = tested on: HOP-62
UO-31 = tested on: UO-31
KM12 = tested on: KM12
SK-OV-3 = tested on: SK-OV-3
SR = tested on: SR
SF-268 = tested on: SF-268
CAKI-1 = tested on: CAKI-1
HL-60 = tested on: HL-60
SNB-19 = tested on: SNB-19
RXF 393 = tested on: RXF 393
OVCAR-8 = tested on: OVCAR-8
KM-20L2 = tested on: KM-20L2
SNB-75 = tested on: SNB-75
OVCAR-3 = tested on: OVCAR-3
OVCAR-4 = tested on: OVCAR-4
XF498 = tested on: XF498
T47D = tested on: T47D
BT-549 = tested on: BT-549
MDA-N = tested on: MDA-N
Hs-578T = tested on: Hs-578T
MDA-MB-231 = tested on: MDA-MB-231
PC-3 = tested on: PC-3
MDA-MB-435 = tested on: MDA-MB-435
MCF7 = tested on: MCF7
A498 = tested on: A498
DU-145 = tested on: DU-145
NCI-H226 = tested on: NCI-H226
DMS-273 = tested on: DMS-273
OVCAR-5 = tested on: OVCAR-5
SF-539 = tested on: SF-539
NCI-H460 = tested on: NCI-H460

Measured: GI50

O=c1cc(-c2ccccc2)oc2cc(OCCSCCCCCCCCCCSCCOc3ccc4c(=O)cc(-c5ccccc5)oc4c3)ccc12
inactive: LXFL 529 > 100 µM | M14 > 100 µM | HOP-92 43.5 µM | U-251 > 100 µM | HCT-116 > 100 µM | M19-MEL > 100 µM | SW-620 > 100 µM | SF-295 > 100 µM | RXF 631 > 100 µM | 786-0 73.5 µM | MOLT-4 > 100 µM | HT-29 > 100 µM | Malme-3M > 100 µM | LOX IMVI > 100 µM | HOP-18 > 100 µM | K562 > 100 µM | TK-10 > 100 µM | DMS-114 > 100 µM | RPMI-8226 > 100 µM | SNB-78 68.2 µM | SK-MEL-2 > 100 µM | CCRF-CEM > 100 µM | ACHN > 100 µM | IGROV-1 > 100 µM | NCI-H522 94.2 µM | COLO 205 > 100 µM | SN12C > 100 µM | DLD-1 > 100 µM | A549 > 100 µM | HCC 2998 > 100 µM | SK-MEL-28 > 100 µM | SK-MEL-5 > 100 µM | NCI-H23 > 100 µM | UACC-257 > 100 µM | EKVX > 100 µM | UACC-62 65.9 µM | HOP-62 51.9 µM | UO-31 > 100 µM | KM12 > 100 µM | SK-OV-3 74.1 µM | SR > 100 µM | SF-268 74.3 µM | CAKI-1 > 100 µM | HL-60 > 100 µM | SNB-19 51.2 µM | RXF 393 37.2 µM | OVCAR-8 > 100 µM | KM-20L2 > 100 µM | SNB-75 > 100 µM | OVCAR-3 > 100 µM
> 100 µM: HCT-15

C/C=C(\CCC1NCCc2c1[nH]c1ccccc21)[Si](C)(C)C (stereo not given)
inactive: OVCAR-4 3.03 µM and 5.81 µM | XF498 1.41 µM and 1.8 µM | LXFL 529 1.78 µM and 5.01 µM | T47D 2.22 µM | BT-549 10.8 µM | RXF 631 5.05 µM and 7.28 µM | MDA-N 2.09 µM | Hs-578T 2.05 µM | MOLT-4 2.74 µM and 4.35 µM | Malme-3M 1.77 µM and 1.21 µM | LOX IMVI 2.28 µM and 20.3 µM | HOP-18 6.79 µM and 20.1 µM | K562 3.57 µM and 6.67 µM | MDA-MB-231 2.14 µM | PC-3 5.01 µM | MDA-MB-435 3.37 µM | SNB-78 4.9 µM and 9.31 µM | MCF7 2.02 µM | COLO 205 14.3 µM and 1.8 µM | SN12C 5.89 µM and 3.32 µM | DLD-1 3.49 µM and 6.24 µM | A549 10.1 µM and 6.59 µM | EKVX 14.7 µM and 8.41 µM | UACC-62 5.86 µM and 5.27 µM | HOP-62 11.9 µM and 14.5 µM | A498 2.67 µM and 6.5 µM | SK-OV-3 13.4 µM and 10.1 µM | SF-268 11.2 µM and 5.96 µM | DU-145 12.6 µM | OVCAR-8 4.16 µM and 7.82 µM | SNB-75 5.97 µM and 6.5 µM | NCI-H226 10.9 µM and 7.76 µM
18.7 µM and 2.25 µM: HCT-15

O=C(O)c1[nH]c(C(=O)O)c(CC(F)(F)C(F)(F)C(F)(F)F)c1CC(F)(F)C(F)(F)C(F)(F)F
inactive: OVCAR-4 > 100 µM | XF498 > 100 µM | LXFL 529 > 100 µM | M14 > 100 µM | HOP-92 39.9 µM | U-251 > 100 µM | HCT-116 > 100 µM | M19-MEL > 100 µM | SW-620 > 100 µM | DMS-273 > 100 µM | SF-295 > 100 µM | RXF 631 > 100 µM | 786-0 > 100 µM | HT-29 > 100 µM | Malme-3M > 100 µM | LOX IMVI > 100 µM | HOP-18 > 100 µM | K562 > 100 µM | TK-10 > 100 µM | DMS-114 > 100 µM | RPMI-8226 > 100 µM | OVCAR-5 > 100 µM | SNB-78 > 100 µM | CCRF-CEM > 100 µM | ACHN > 100 µM | IGROV-1 > 100 µM | NCI-H522 > 100 µM | COLO 205 > 100 µM | SN12C > 100 µM | DLD-1 > 100 µM | A549 > 100 µM | HCC 2998 > 100 µM | SK-MEL-28 > 100 µM | SK-MEL-5 > 100 µM | NCI-H23 > 100 µM | SF-539 > 100 µM | UACC-257 > 100 µM | EKVX > 100 µM | UACC-62 > 100 µM | HOP-62 > 100 µM | UO-31 > 100 µM | KM12 > 100 µM | A498 > 100 µM | SK-OV-3 > 100 µM | NCI-H460 > 100 µM | SF-268 > 100 µM | CAKI-1 > 100 µM | HL-60 > 100 µM | SNB-19 > 100 µM | RXF 393 > 100 µM | OVCAR-8 > 100 µM | KM-20L2 > 100 µM | SNB-75 > 100 µM | OVCAR-3 > 100 µM | NCI-H226 > 100 µM
> 100 µM: HCT-15
